Test results taken from US8921362B2, “6,7-dialkoxy quinazoline derivatives and methods of treating drug resistant and other tumors” (Natco Pharma Limited, priority 2008, dated 2014).

How the values were obtained:
Experiment in all cases: KinomeScan
Type in all cases: binding
Details in all cases: read-out: % Ctrl @ 10000 nM
[1] = molecular target: T1, ALK (Homo sapiens, UniProt Q9UM73)
T1 construct: host or cells: E. coli (BL21-derived), T7 phage lysate
Method in brief: (§1)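 qPCR titer; phage-tagged kinase vs bead ligand; compound diluted from 40× DMSO stock; 2.5% DMSO control.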

[2] = molecular target: T2, ANKK1 (Homo sapiens, UniProt Q8NFD2)
T2 construct: host or cells: E. coli (BL21-derived), T7 phage lysate
Method in brief: as §1

[3] = molecular target: T3, ARK5 (Homo sapiens, UniProt O60285)
T3 construct: host or cells: E. coli host derived from BL21
Method in brief: as §1

[4] = molecular target: T4, BRSK1 (Homo sapiens, UniProt Q8TDC3)
T4 construct: host or cells: E. coli host derived from BL21
Method in brief: as §1

[5] = molecular target: T5, CAMK1G (Homo sapiens, UniProt Q96NX5)
T5 construct: host or cells: E. coli host derived from BL21
Method in brief: as §1

[6] = molecular target: T6, CAMK2B (Homo sapiens, UniProt Q13554)
T6 construct: host or cells: E. coli host derived from BL21
Method in brief: as §1

[7] = molecular target: T7, CDK2 (Homo sapiens, UniProt P24941)
T7 construct: host or cells: T7 phage in E. coli host derived from BL21
Method in brief: as §1

[8] = molecular target: T8, CSNK2A1 (Homo sapiens, UniProt P68400)
T8 construct: purchased Ambit Biosciences Corp (KinomeScan); host or cells: T7 phage in E. coli host derived from BL21
Method in brief: as §1

[9] = molecular target: T9, DRAK1 (Homo sapiens, UniProt Q9UEE5)
T9 construct: purchased Ambit Biosciences Corp (KinomeScan); host or cells: T7 phage in E. coli host derived from BL21
Method in brief: as §1

[10] = molecular target: T10, EGFR (Homo sapiens, UniProt P00533)
T10 construct: purchased Ambit Biosciences Corp (KinomeScan); host or cells: T7 phage in E. coli host derived from BL21
Method in brief: as §1

[11] = molecular target: T11, EGFR(L747-S752del, P753S) (Homo sapiens, UniProt P00533, DEL747-752/P753S)
T11 construct: purchased Ambit Biosciences Corp (KinomeScan); host or cells: T7 phage in E. coli host derived from BL21
Method in brief: as §1

[12] = molecular target: T12, FLT3 (Homo sapiens, UniProt P36888)
T12 construct: host or cells: T7 phage in E. coli host derived from BL21
Method in brief: as §1

[13] = molecular target: T13, IKK-epsilon (Homo sapiens, UniProt Q14164)
T13 construct: host or cells: T7 phage grown in E. coli host derived from BL21
Method in brief: as §1

[14] = molecular target: T14, JAK1(JH2domain-pseudokinase) (Homo sapiens, UniProt P23458)
T14 construct: JAK1(JH2domain-pseudokinase); host or cells: T7 phage grown in E. coli host derived from BL21
Method in brief: as §1

[15] = molecular target: T15, JNK1 (Homo sapiens, UniProt P45983)
T15 construct: host or cells: T7 phage grown in E. coli host derived from BL21
Method in brief: as §1

[16] = molecular target: T16, JNK2 (Homo sapiens, UniProt P45984)
T16 construct: host or cells: T7 phage grown in E. coli host derived from BL21
Method in brief: as §1

[17] = molecular target: T17, LCK (Homo sapiens, UniProt P06239)
T17 construct: host or cells: T7 phage grown in E. coli host derived from BL21
Method in brief: as §1

[18] = molecular target: T18, MARK1 (Homo sapiens, UniProt Q9P0L2)
T18 construct: host or cells: E. coli host derived from the BL21 strain, infected with T7 phage
Method in brief: as §1

[19] = molecular target: T19, MEK1 (Homo sapiens, UniProt Q02750)
T19 construct: host or cells: E. coli host derived from the BL21 strain, infected with T7 phage
Method in brief: as §1

[20] = molecular target: T20, MELK (Homo sapiens, UniProt Q14680)
T20 construct: host or cells: E. coli host derived from the BL21 strain, infected with T7 phage
Method in brief: as §1

[21] = molecular target: T21, MET (Homo sapiens, UniProt P08581)
T21 construct: host or cells: E. coli host derived from the BL21 strain, infected with T7 phage
Method in brief: as §1

[22] = molecular target: T22, MRCKA (Homo sapiens, UniProt Q5VT25)
T22 construct: host or cells: T7 phage grown in E. coli host derived from BL21
Method in brief: as §1

[23] = molecular target: T23, MUSK (Homo sapiens, UniProt O15146)
T23 construct: host or cells: T7 phage grown in E. coli host derived from BL21
Method in brief: as §1

[24] = molecular target: T24, PIK3CG (Homo sapiens, UniProt P48736)
T24 construct: host or cells: T7 phage in E. coli host derived from BL21
Method in brief: as §1

[25] = molecular target: T25, PIM1 (Homo sapiens, UniProt P11309)
T25 construct: host or cells: T7 phage in E. coli host derived from BL21
Method in brief: as §1

[26] = molecular target: T26, PKN1 (Homo sapiens, UniProt Q16512)
T26 construct: host or cells: T7 phage in E. coli host derived from BL21
Method in brief: as §1

[27] = molecular target: T27, RET(M918T) (Homo sapiens, UniProt P07949, M918T)
T27 construct: host or cells: E. coli host derived from BL21, T7 phage display
Method in brief: as §1

[28] = molecular target: T28, RPS6KA1(Kin.Dom.-1-N-terminal) (Homo sapiens, UniProt Q15418)
T28 construct: RPS6KA1(Kin.Dom.-1-N-terminal); host or cells: E. coli host derived from BL21, T7 phage display
Method in brief: as §1

[29] = molecular target: T29, SgK085 (Homo sapiens, UniProt Q86YV6)
T29 construct: host or cells: T7 phage grown in E. coli (BL21-derived)
Method in brief: as §1

[30] = molecular target: T30, TLK1 (Homo sapiens, UniProt Q9UKI8)
T30 construct: host or cells: E. coli host derived from BL21, T7 phage
Method in brief: as §1

[31] = molecular target: T31, TTK (Homo sapiens, UniProt P33981)
T31 construct: host or cells: E. coli host derived from BL21, T7 phage
Method in brief: as §1

[32] = molecular target: T32, YSK1 (Homo sapiens, UniProt O00506)
T32 construct: host or cells: T7 phage grown in an E. coli host derived from BL21
Method in brief: as §1

[33] = molecular target: T33, p38-beta (Homo sapiens, UniProt Q15759)
T33 construct: host or cells: E. coli host derived from BL21, infected with T7 phage
Method in brief: as §1

T20 sequence (Q14680 whole entry): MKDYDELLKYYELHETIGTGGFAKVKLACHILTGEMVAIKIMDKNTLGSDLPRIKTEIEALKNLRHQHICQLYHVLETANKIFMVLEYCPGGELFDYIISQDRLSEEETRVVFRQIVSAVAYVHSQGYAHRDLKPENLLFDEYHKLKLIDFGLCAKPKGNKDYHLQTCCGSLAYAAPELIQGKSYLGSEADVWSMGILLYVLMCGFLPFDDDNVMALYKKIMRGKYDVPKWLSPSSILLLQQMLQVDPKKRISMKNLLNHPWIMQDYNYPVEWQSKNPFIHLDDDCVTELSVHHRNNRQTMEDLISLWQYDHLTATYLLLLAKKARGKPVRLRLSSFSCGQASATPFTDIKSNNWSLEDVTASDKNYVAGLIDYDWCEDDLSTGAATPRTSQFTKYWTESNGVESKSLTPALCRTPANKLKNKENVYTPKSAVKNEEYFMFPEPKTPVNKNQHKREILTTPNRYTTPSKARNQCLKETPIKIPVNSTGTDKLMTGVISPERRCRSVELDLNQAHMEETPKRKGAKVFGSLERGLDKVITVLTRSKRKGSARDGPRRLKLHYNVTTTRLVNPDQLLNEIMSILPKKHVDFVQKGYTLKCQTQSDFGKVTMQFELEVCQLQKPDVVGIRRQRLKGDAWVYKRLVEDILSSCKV
T11 sequence (P00533 with tags, fused parts or gaps DEL747-752/P753S): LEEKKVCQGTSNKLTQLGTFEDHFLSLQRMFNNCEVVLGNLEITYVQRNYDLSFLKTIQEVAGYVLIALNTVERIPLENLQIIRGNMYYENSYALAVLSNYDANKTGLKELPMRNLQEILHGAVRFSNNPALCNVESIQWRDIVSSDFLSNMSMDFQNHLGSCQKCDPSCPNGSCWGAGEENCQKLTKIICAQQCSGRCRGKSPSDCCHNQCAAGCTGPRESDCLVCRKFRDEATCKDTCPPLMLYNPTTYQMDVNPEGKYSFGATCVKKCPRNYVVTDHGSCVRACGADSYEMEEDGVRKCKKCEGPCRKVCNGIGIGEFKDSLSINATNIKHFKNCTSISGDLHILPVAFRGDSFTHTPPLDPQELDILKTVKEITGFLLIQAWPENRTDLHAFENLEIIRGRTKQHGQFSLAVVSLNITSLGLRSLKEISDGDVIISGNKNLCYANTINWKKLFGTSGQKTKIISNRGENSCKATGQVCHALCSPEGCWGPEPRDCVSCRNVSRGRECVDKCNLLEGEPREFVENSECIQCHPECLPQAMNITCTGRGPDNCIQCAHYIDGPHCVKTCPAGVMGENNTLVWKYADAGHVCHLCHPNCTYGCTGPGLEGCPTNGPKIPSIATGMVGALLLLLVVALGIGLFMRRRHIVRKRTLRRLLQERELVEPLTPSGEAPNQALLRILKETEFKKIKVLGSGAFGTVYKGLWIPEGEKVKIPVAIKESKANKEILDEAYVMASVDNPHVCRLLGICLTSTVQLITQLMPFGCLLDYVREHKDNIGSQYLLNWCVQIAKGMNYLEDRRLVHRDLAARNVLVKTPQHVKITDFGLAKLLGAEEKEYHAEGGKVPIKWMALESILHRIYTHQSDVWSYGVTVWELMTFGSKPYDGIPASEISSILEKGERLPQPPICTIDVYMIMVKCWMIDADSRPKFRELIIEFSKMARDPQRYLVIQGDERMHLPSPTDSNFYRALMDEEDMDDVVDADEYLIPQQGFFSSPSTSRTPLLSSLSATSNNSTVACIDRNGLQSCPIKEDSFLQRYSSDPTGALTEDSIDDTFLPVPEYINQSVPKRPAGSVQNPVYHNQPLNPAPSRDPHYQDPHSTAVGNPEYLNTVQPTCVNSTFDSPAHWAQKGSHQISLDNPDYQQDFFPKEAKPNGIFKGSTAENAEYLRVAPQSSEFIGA
T5 sequence (Q96NX5 whole entry): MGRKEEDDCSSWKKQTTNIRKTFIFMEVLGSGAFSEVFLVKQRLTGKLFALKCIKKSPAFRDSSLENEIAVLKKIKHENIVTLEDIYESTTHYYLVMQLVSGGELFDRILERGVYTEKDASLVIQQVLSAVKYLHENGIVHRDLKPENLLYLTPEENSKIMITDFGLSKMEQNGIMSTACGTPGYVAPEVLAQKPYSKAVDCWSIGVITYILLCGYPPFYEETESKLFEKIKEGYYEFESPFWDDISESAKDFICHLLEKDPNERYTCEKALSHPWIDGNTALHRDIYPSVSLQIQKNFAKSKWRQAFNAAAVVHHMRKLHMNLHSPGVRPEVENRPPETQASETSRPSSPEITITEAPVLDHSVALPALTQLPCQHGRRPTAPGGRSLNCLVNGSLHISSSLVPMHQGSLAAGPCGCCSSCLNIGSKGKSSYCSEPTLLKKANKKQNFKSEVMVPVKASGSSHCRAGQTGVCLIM
T3 sequence (O60285 whole entry): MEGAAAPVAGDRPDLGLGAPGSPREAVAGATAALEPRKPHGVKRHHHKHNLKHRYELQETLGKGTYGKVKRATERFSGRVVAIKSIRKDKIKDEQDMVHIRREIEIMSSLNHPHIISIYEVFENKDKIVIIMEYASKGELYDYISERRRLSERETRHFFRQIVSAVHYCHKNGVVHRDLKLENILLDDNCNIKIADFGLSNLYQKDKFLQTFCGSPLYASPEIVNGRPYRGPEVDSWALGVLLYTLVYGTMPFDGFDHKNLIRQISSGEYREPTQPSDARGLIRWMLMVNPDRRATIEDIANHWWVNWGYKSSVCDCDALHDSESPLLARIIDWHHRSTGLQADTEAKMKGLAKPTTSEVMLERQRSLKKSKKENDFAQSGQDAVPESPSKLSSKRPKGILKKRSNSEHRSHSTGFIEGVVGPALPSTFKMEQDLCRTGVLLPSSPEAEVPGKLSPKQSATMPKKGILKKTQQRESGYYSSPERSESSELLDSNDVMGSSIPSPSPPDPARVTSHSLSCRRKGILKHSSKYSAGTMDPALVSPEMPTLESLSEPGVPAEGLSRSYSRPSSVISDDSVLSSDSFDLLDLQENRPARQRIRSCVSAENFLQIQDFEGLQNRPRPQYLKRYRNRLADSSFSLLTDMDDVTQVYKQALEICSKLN
T21 sequence (P08581 25-1390): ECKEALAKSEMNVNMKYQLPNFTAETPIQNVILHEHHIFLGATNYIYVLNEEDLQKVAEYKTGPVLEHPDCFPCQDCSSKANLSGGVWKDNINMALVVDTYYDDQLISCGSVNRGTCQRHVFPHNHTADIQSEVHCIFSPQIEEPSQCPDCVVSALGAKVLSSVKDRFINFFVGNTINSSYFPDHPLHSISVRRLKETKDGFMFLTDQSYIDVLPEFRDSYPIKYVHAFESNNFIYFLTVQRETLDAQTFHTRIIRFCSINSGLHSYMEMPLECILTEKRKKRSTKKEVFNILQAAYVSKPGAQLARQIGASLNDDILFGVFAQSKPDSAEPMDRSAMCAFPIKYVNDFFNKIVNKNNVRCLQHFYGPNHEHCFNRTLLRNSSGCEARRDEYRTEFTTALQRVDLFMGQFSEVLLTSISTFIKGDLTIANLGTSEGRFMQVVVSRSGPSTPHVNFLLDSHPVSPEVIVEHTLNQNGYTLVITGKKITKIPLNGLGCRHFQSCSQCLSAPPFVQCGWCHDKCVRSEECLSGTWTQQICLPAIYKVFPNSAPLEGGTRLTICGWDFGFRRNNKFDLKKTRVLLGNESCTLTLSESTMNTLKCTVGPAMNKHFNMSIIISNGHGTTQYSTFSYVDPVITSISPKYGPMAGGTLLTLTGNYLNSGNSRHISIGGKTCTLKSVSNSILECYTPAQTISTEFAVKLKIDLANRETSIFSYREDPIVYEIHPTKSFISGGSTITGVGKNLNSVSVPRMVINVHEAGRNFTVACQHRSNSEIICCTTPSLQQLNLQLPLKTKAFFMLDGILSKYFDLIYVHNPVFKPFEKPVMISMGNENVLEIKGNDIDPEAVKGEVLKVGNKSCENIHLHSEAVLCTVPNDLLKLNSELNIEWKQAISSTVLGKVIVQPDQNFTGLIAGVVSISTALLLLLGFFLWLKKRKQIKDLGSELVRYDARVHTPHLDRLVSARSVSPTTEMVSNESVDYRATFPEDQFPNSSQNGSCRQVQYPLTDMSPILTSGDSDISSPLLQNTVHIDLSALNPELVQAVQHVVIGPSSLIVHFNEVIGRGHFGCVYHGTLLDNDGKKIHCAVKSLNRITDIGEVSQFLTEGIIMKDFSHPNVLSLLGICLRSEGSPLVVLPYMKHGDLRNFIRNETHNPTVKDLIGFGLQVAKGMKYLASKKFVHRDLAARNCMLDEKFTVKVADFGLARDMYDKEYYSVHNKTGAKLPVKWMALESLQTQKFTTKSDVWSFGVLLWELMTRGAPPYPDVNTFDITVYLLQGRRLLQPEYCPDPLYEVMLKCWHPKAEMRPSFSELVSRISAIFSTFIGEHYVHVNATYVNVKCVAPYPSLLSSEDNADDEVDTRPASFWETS
T9 sequence (Q9UEE5 whole entry): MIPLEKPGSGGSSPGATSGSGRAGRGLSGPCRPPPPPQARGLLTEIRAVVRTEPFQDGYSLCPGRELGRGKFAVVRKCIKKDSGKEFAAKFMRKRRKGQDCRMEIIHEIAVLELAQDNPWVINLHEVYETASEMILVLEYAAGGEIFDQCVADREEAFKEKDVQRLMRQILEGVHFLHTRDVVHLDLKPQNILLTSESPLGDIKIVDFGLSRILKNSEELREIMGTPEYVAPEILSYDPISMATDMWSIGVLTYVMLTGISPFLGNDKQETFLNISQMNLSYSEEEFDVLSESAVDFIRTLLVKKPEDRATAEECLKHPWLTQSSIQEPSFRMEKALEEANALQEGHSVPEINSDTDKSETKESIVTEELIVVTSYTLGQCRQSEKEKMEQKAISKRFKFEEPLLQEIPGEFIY
T25 sequence (P11309 whole entry): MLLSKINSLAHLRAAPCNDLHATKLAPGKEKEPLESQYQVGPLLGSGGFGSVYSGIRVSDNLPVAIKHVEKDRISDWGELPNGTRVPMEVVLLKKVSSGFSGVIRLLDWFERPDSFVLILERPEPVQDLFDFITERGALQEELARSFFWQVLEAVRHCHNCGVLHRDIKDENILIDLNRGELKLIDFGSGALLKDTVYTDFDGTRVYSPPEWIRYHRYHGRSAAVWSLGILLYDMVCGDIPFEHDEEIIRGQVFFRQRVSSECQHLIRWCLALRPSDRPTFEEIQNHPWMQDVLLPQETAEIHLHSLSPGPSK

Question: Which remaining binding at 10 µM [1] does the source give for `C#Cc1cccc(Nc2ncnc3cc(OC)c(OCCCN4CCOCC4)cc23)c1` [NRC-2694, N-(3-ethynylphenyl)-7-methoxy-6-[3-(4-morpholinyl)propoxy]-4-quinazolinamine] here?
Answer: 10%

Question: And the remaining binding at 10 µM [2]?
Answer: 73%

Question: What about the remaining binding at 10 µM [3] of the same compound?
Answer: 29%

Question: And the remaining binding at 10 µM [4]?
Answer: 53%

Question: And the remaining binding at 10 µM [5]?
Answer: 75%

Question: What about the remaining binding at 10 µM [6] of the same compound?
Answer: 77%

Question: What about the remaining binding at 10 µM [7] of the same compound?
Answer: 94%

Question: And the remaining binding at 10 µM [8]?
Answer: 56%

Question: And the remaining binding at 10 µM [9]?
Answer: 51%

Question: And the remaining binding at 10 µM [10]?
Answer: 0%

Question: And the remaining binding at 10 µM [11]?
Answer: 0.1%

Question: And the remaining binding at 10 µM [12]?
Answer: 49%

Question: What about the remaining binding at 10 µM [13] of the same compound?
Answer: 75%

Question: What about the remaining binding at 10 µM [14] of the same compound?
Answer: 81%

Question: What about the remaining binding at 10 µM [15] of the same compound?
Answer: 99%

Question: What about the remaining binding at 10 µM [16] of the same compound?
Answer: 95%

Question: What about the remaining binding at 10 µM [17] of the same compound?
Answer: 1.5%

Question: And the remaining binding at 10 µM [18]?
Answer: 56%

Question: And the remaining binding at 10 µM [19]?
Answer: 50%

Question: And the remaining binding at 10 µM [20]?
Answer: 57%

Question: What about the remaining binding at 10 µM [21] of the same compound?
Answer: 33%

Question: What about the remaining binding at 10 µM [22] of the same compound?
Answer: 81%

Question: And the remaining binding at 10 µM [23]?
Answer: 100%

Question: What about the remaining binding at 10 µM [24] of the same compound?
Answer: 78%

Question: And the remaining binding at 10 µM [25]?
Answer: 39%

Question: What about the remaining binding at 10 µM [26] of the same compound?
Answer: 50%

Question: And the remaining binding at 10 µM [27]?
Answer: 37%

Question: And the remaining binding at 10 µM [28]?
Answer: 100%

Question: What about the remaining binding at 10 µM [29] of the same compound?
Answer: 84%

Question: What about the remaining binding at 10 µM [30] of the same compound?
Answer: 77%

Question: What about the remaining binding at 10 µM [31] of the same compound?
Answer: 48%

Question: What about the remaining binding at 10 µM [32] of the same compound?
Answer: 69%

Question: What about the remaining binding at 10 µM [33] of the same compound?
Answer: 100%
